Laboratory results taken from patent US10556883B2, “Benzenesulfonamide compounds, method for synthesizing same, and use thereof in medicine and cosmetics” (GALDERMA RESEARCH & DEVELOPMENT, priority 2016, dated 2020).

Experiments:
[1] = target: Recombinant Human ADAM17 catalytic domain (Homo sapiens (Human), UniProt P78536); assay: TACE (ADAM17) isolated enzyme assay, profluorescent peptidic substrate; details: read-out: TACE enz IC50; ADAM17 catalytic domain 500 nM, 40 μM substrate, two hours
Experimental: Activity of the compounds was investigated using TACE (ADAM17) isolated enzyme. […] Mca fluorescence was quenched by the Dpa group until cleavage by ADAM17 at the Ala-Val bond separates the two moieties.
The enzymatic reaction was performed in 384-well microplates with a final volume of 10 μL containing 1% DMSO. Recombinant Human ADAM17 catalytic domain (500 nM) was assayed with 40 μM of substrate and serial dilutions of tested inhibitors (from 10000 nM to 0.04 nM). After two hours of incubation at room temperature, the fluorescence was measured using a microplate reader (320/425 nm).
Data were normalized using the average of positive controls (enzyme with no inhibitor) and negative controls (no enzyme). IC50 were calculated using a four-parameters logistic model.

[2] = test system: TNFα secretion from LPS stimulated frozen Peripheral Blood Mononuclear Cells (PBMC); assay: inhibition of TNFα secretion from LPS stimulated human PBMC (hPBMC assay); format: cell-based; details: LPS 1 μg/mL, overnight incubation, TNFα by HTRF
Experimental: Activity of the compounds was investigated using human peripheral blood mononuclear cells (hPBMC). This assay was designed to measure the inhibition of the TNFα secretion from LPS stimulated frozen Peripheral Blood Mononuclear Cells (PBMC) isolated from human blood. TNFα levels were measured using HTRF® Human TNFα kit (Cisbio #62TNFPEC) which is a rapid and quantitative sandwich immunoassay based on TR-FRET technology.
Frozen PBMC were quickly thawed, resuspended in culture medium (RPMI 10% inactivated FBS) and viable cells were seeded in 96-well plates (50,000 cells/well). […] After overnight incubation at 37° C., 10 μL of cell supernatant were mixed with 5 μL of each tagged anti-TNFα specific antibody as recommended by the supplier. After 2 hours of incubation at room temperature, the HTRF® signals were measured using a microplate reader (wavelengths: excitation=337 nm, first emission=620 nm, second emission=665 nm).

[3] = target: Recombinant Human catalytic domains of MMP1 (Homo sapiens (Human), UniProt P03956); assay: MMP1 isolated enzyme assay, profluorescent peptidic substrate; format: biochemical; details: 10 minutes incubation at room temperature; read-out: MMP1 enz IC50
Recombinant Human catalytic domains of MMP1, sequence (P03956 98-276): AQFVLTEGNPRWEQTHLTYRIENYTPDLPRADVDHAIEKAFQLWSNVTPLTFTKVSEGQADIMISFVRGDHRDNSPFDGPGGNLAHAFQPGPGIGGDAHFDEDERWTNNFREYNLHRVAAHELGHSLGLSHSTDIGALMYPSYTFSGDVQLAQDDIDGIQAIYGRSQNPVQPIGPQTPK
Text: Activity of the compounds was investigated using MMP1 isolated enzyme.

TACE enzyme = TACE enzyme (Homo sapiens (Human), UniProt P78536); details: WO 00/44709, page 251, table 10, example 61; cited from earlier work
TACE enzyme, sequence (P78536 215-824): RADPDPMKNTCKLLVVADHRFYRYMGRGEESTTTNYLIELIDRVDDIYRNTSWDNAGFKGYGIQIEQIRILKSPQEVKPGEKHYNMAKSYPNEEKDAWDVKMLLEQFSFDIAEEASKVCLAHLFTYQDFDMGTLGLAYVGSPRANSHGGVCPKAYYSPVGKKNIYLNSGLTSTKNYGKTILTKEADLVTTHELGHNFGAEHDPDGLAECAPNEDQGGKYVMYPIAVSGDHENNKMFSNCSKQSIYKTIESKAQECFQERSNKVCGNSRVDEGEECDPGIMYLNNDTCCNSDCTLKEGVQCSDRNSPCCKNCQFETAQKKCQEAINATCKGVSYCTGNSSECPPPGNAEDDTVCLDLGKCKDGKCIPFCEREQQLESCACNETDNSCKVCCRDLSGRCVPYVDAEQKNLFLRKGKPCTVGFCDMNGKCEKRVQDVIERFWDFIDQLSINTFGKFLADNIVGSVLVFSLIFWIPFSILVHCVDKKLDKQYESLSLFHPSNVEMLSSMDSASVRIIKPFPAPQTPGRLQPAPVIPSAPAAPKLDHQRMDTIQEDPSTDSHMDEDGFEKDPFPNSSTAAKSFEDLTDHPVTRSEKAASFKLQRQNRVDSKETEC

Recombinant Human ADAM17 catalytic domain, sequence (P78536 223-474): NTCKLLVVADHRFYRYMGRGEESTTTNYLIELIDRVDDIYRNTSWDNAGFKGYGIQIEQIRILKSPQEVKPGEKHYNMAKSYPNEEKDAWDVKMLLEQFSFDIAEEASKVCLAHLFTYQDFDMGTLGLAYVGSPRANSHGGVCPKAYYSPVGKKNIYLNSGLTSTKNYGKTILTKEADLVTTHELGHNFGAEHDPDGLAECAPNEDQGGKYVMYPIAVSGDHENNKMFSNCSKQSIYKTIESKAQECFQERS

Row | IC50 [1] | IC50 [3] | Structure (SMILES) | IC50 [2] | selectivity for the TACE enzyme compared with certain MMPs (TACE enzyme)
1 | 11.4 nM | > 10000 nM | Cc1cc(COc2ccc(S(=O)(=O)NC3(C(=O)NO)CN(C(=O)CC4CCC4)C3)cc2)c2ccccc2n1 [Example 26f, 1-(2-cyclobutylacetyl)-N-hydroxy-3-((4-((2-methylquinolin-4-yl)methoxy)phenyl)sulfonamido)azetidine-3-carboxamide] | < 50 nM | 
2 | 8.2 nM | > 10000 nM | Cc1cc(COc2ccc(S(=O)(=O)NC3(CC(=O)NO)CN(C(=O)CC(C)(C)C)C3)cc2)c2ccccc2n1 [Example 11, 2-(1-(3,3-dimethylbutanoyl)-3-((4-((2-methylquinolin-4-yl)methoxy)phenyl)sulfonamido)azetidin-3-yl)-N-hydroxyacetamide] | < 50 nM | 
3 |  |  | Cc1cc(COc2ccc(S(=O)(=O)N(C(C)C)C3(C(=O)NO)CN(C(=O)C(C)C)C3)cc2)c2ccccc2n1 [Example 23, N-hydroxy-1-isobutyryl-3-((N-isopropyl-4-((2-methylquinolin-4-yl)methoxy)phenyl)sulfonamido)azetidine-3-carboxamide] | 500 to 1000 nM | 
4 |  |  | Cc1cc(COc2ccc(S(=O)(=O)NC3(C(=O)NO)CN(C(=O)C4CCOCC4)C3)cc2)c2ccccc2n1 [Example 7d, N-hydroxy-3-((4-((2-methylquinolin-4-yl)methoxy)phenyl)sulfonamido)-1-(tetrahydro-2H-pyran-4-carbonyl)azetidine-3-carboxamide] | < 50 nM | 
5 |  |  | Cc1cc(COc2ccc(S(=O)(=O)NC3(CC(=O)NO)CN(C(=O)OC(C)(C)C)C3)cc2)c2ccccc2n1 [Example 2, Tert-butyl 3-(2-(hydroxyamino)-2-oxoethyl)-3-((4-((2-methylquinolin-4-yl)methoxy)phenyl)sulfonamido)azetidine-1-carboxylate] | < 50 nM | 
6 |  |  | C=CCOC(=O)N1CC(NS(=O)(=O)c2ccc(OCc3cc(C)nc4ccccc34)cc2)(C(=O)NO)C1 [Example 17, Allyl 3-(hydroxycarbamoyl)-3-((4-((2-methylquinolin-4-yl)methoxy)phenyl)sulfonamido)azetidine-1-carboxylate] | < 50 nM | 
7 | 5.6 nM | > 10000 nM | CCN1CCN(C(=O)N2CC(CC(=O)NO)(NS(=O)(=O)c3ccc(OCc4cc(C)nc5ccccc45)cc3)C2)CC1 [Example 28b, 2-(1-(4-ethylpiperazine-1-carbonyl)-3-((4-((2-methylquinolin-4-yl)methoxy)phenyl)sulfonamido)azetidin-3-yl)-N-hydroxyacetamide] | < 50 nM | 
8 |  |  | CC[C@H](C)C(=O)N1CC(NS(=O)(=O)c2ccc(OCc3cc(C)nc4ccccc34)cc2)(C(=O)NO)C1 [Example 26d, (S)-N-hydroxy-1-(2-methylbutanoyl)-3-((4-((2-methylquinolin-4-yl)methoxy)phenyl)sulfonamido)azetidine-3-carboxamide] | < 50 nM | 
9 |  |  | Cc1cc(COc2ccc(S(=O)(=O)NC3(CC(=O)NO)CN(C(=O)C4CCOCC4)C3)cc2)c2ccccc2n1 [Example 4g, N-hydroxy-2-(3-((4-((2-methylquinolin-4-yl)methoxy)phenyl)sulfonamido)-1-(tetrahydro-2H-pyran-4-carbonyl)azetidin-3-yl)acetamide] | < 50 nM | 
10 |  |  | CC1(C)SCCN(S(=O)(=O)c2ccc(OCC#CCO)cc2)[C@H]1C(=O)NO [Apratastat] |  | not selective
11 |  |  | Cc1cc(COc2ccc(S(=O)(=O)NC3(CC(=O)NO)CN(C(=O)CN4CCCCC4)C3)cc2)c2ccccc2n1 [Example 12, N-hydroxy-2-(3-((4-((2-methylquinolin-4-yl)methoxy)phenyl)sulfonamido)-1-(2-(piperidin-1-yl)acetyl)azetidin-3-yl)acetamide] | < 50 nM | 
12 |  |  | Cc1cc(COc2ccc(S(=O)(=O)NC3(C(=O)NO)CN(C(=O)CC(C)C)C3)cc2)c2cccc(F)c2n1 [Example 29, 3-((4-((8-fluoro-2-methylquinolin-4-yl)methoxy)phenyl)sulfonamido)-N-hydroxy-1-(3-methylbutanoyl)azetidine-3-carboxamide] | 100 to 500 nM | 
13 |  |  | Cc1cc(COc2ccc(S(=O)(=O)NC3(CC(=O)NO)CN(C(=O)N4CCN(C(C)C)CC4)C3)cc2)c2ccccc2n1 [Example 28a, N-hydroxy-2-(1-(4-isopropylpiperazine-1-carbonyl)-3-((4-((2-methylquinolin-4-yl)methoxy)phenyl)sulfonamido)azetidin-3-yl)acetamide] | < 50 nM | 
14 |  |  | CCCC(=O)N1CC(NS(=O)(=O)c2ccc(OCc3cc(C)nc4ccccc34)cc2)(C(=O)NO)C1 [Example 7h, 1-butyryl-N-hydroxy-3-((4-((2-methylquinolin-4-yl)methoxy)phenyl)sulfonamido)azetidine-3-carboxamide] | < 50 nM | 
15 |  |  | Cc1cc(COc2ccc(S(=O)(=O)NC3(C(=O)NO)CN(C(=O)OC(C)(C)C)C3)cc2)c2ccccc2n1 [Example 14, Tert-butyl 3-(hydroxycarbamoyl)-3-((4-((2-methylquinolin-4-yl)methoxy)phenyl)sulfonamido)azetidine-1-carboxylate] | < 50 nM | 
16 |  |  | Cc1cc(COc2ccc(S(=O)(=O)NC3(C(=O)NO)CN(C(=O)C4CCC4)C3)cc2)c2ccccc2n1 [Example 7e, 1-(cyclobutanecarbonyl)-N-hydroxy-3-((4-((2-methylquinolin-4-yl)methoxy)phenyl)sulfonamido)azetidine-3-carboxamide] | < 50 nM | 
17 |  |  | Cc1cc(COc2ccc(S(=O)(=O)NC3(C(=O)NO)CN(C(=O)N4CCCCC4)C3)cc2)c2ccccc2n1 [Example 16a, N-hydroxy-3-((4-((2-methylquinolin-4-yl)methoxy)phenyl)sulfonamido)-1-(piperidine-1-carbonyl)azetidine-3-carboxamide] | 50 to 100 nM | 
18 |  |  | Cc1cc(COc2ccc(S(=O)(=O)NC3(C(=O)NO)CN(C(=O)CC(C)C)C3)cc2)c2ccccc2n1 [Example 7c, N-hydroxy-1-(3-methylbutanoyl)-3-((4-((2-methylquinolin-4-yl)methoxy)phenyl)sulfonamido)azetidine-3-carboxamide] | < 50 nM | 
19 | 2.8 nM | > 10000 nM | Cc1cc(COc2ccc(S(=O)(=O)NC3(CC(=O)NO)CN(C(=O)N4CCN(C)CC4)C3)cc2)c2ccccc2n1 [Example 10, N-hydroxy-2-(1-(4-methylpiperazine-1-carbonyl)-3-((4-((2-methylquinolin-4-yl)methoxy)phenyl)sulfonamido)azetidin-3-yl)acetamide] | < 50 nM | 
20 |  |  | COCC(=O)N1CC(CC(=O)NO)(NS(=O)(=O)c2ccc(OCc3cc(C)nc4ccccc34)cc2)C1 [Example 4f, N-hydroxy-2-(1-(2-methoxyacetyl)-3-((4-((2-methylquinolin-4-yl)methoxy)phenyl)sulfonamido)azetidin-3-yl)acetamide] | < 50 nM | 
21 |  |  | Cc1cc(COc2ccc(S(=O)(=O)N(C)C3(C(=O)NO)CN(C(=O)C(C)C)C3)cc2)c2cccc(F)c2n1 [Example 30, 3-((4-((8-fluoro-2-methylquinolin-4-yl)methoxy)-N-methylphenyl)sulfonamido)-N-hydroxy-1-isobutyrylazetidine-3-carboxamide] | < 50 nM | 

Row | Structure (SMILES) | IC50 [1] | IC50 [3] | IC50 [2] | selectivity for the TACE enzyme compared with certain MMPs (TACE enzyme)
22 | Cc1cc(COc2ccc(S(=O)(=O)NC3(C(=O)NO)CN(C(=O)C(C)C)C3)cc2)c2ccccc2n1 [Example 7b, N-hydroxy-1-isobutyryl-3-((4-((2-methylquinolin-4-yl)methoxy)phenyl)sulfonamido)azetidine-3-carboxamide] | 5.2 nM | > 10000 nM | < 50 nM | 
23 | Cc1cc(COc2ccc(S(=O)(=O)NC3(CC(=O)NO)CN(C(=O)C(C)(C)N(C)C)C3)cc2)c2ccccc2n1 [Example 18, 2-(1-(2-(dimethylamino)-2-methylpropanoyl)-3-((4-((2-methylquinolin-4-yl)methoxy)phenyl)sulfonamido)azetidin-3-yl)-N-hydroxyacetamide] | 3.5 nM | > 10000 nM | < 50 nM | 
